Experimental data taken from patent US20030207812A1, “Cd45 inhibitors” (priority 2002, published 2003).
Like-named read-outs stand apart in the source and are kept apart here. Where a SMILES comes first, the peptide text is derived from it. The star is where a group is joined. Phenanthrenequinone2carbonyl = O=C1C(=O)c2cc(C(=O)*)ccc2-c2ccccc21

Experiments:
T-cell lymphoblasts [1] = test: Cytotoxicity assay (Calcein-AM uptake); conditions: PHA-expanded T-cell lymphoblasts, overnight incubation, Calcein-AM
Protocol: (§1) Calcein-AM (Molecular Probes. Eugene, Oreg.) uptake, as a quantitative measure of cell viability, was used to evaluate the toxic effect of compounds on T cells.
(§2) The T-cell lymphoblasts were purified by separation over Lymphoprep, plated at 2×10^5/well in a round bottom 96-well plate containing RPMI with compound and incubated overnight at 37° C. in an incubator containing 5% CO2. The dilution scheme and culture media were the same as those used in the T-cell proliferation assay. After the incubation period, cells were washed with Dulbecco's phosphate-buffered saline (D-PBS) and incubated with 1 μM Calcein-AM for 30-45 mim in D-PBS as described in the technical sheet provided with The LIVE/DEAD Viability/Cytotoxicity Kit from Molecular Probes.

CD45 [2] = biological target: T1, CD45 (Homo sapiens, UniProt P08575); test: Phosphatase assay using pNPP as substrate; format: biochemical; conditions: read-out: pNPP IC50
T1 construct: incubating the cytosolic portion of CD45 with the compounds and p-nitrophenyl phosphate (pNPP); purchased BIOMOL (Plymouth Meeting, Pa.)
T1 sequence (P08575 599-1306 limits assumed): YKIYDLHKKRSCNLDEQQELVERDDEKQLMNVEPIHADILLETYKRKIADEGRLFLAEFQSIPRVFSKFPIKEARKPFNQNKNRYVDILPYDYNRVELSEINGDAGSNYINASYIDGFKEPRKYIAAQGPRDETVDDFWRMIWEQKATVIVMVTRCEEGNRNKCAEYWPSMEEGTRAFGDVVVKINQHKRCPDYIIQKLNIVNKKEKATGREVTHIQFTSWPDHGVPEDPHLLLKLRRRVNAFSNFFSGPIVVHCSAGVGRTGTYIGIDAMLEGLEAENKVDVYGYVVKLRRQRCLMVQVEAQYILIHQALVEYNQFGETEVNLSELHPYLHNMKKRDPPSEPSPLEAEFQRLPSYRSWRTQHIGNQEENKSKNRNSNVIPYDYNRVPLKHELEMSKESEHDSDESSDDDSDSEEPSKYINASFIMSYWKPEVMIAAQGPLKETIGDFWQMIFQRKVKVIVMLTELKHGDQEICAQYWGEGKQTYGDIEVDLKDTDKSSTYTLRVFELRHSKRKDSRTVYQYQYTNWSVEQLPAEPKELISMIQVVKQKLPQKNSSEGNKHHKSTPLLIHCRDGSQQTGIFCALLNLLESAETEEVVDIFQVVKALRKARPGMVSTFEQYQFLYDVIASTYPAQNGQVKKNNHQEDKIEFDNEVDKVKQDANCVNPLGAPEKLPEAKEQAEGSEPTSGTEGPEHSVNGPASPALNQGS
Protocol: Phosphatase assay using pNPP as substrate:
CD45 enzyme was obtained from BIOMOL (Plymouth Meeting, Pa.). Phosphatase activity was assayed in a buffer containing final concentrations of 25 mM imidazole at pH 7.0, 50 mM NaCl, 2.5 mM ethylenediaminetetraacetic acid (“EDTA”), 5 mM dithiothreitol (“DTT”) and 10 μg/mL bovine serum albumin (“BSA”) using pNPP as a substrate.

T cells (PBMC) = test: cells; format: cell-based, human; conditions: human PBMC, OKT3 30 ng/mL, [3H]thymidine; read-out: T cell prolif. IC50
CD45 [3] = biological target: T1, CD45; test: Phosphatase assay using lck 10-mer as substrate; format: biochemical
Summary of the method: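 Enzyme incubated with lck phosphopeptide TEGQpYQPQP for 1.5 h at room temperature in 25 mM HEPES pH 7.2, 5 mM DTT, 10 μg/mL BSA, 5% DMSO final. Compounds tested from 30 to 0.01 μM. Released phosphate detected with malachite-type Green Reagent, absorbance at 620 nm after 30 min.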

T-cell lymphoblasts [4] = tested on: T-cell lymphoblasts
Protocol: as §1, §2

in vitro = conditions: human
Protocol: as §1, §2

[5] = CD45 phosphatase, pNPP substrate, pH 7.0
[6] = CD45 phosphatase, lck carboxy-terminal peptide TEGQpYQPQP substrate, pH 7.2, read-out: Ick IC50

“8-(9,10-Dioxo-9,10-dihydro-phenanthren-3-ylcarbamoyl)-heptanoic Acid Methyl Ester [Example 78]” gave a CC50 (T-cell lymphoblasts [1]) of 28000 nM, an IC50 (CD45 [2]; [5]) of 700 nM and an IC50 (T cells (PBMC)) of 1300 nM. The IC50 (CD45 [3]; [6]) was 6900 nM.

`CCCC(=O)Nc1ccc2c(c1)-c1ccccc1C(=O)C2=O` [Example 9, N-(9,10-Dioxo-9,10-dihydro-phenenathren-3-yl)-butyramide] gave a CC50 (T-cell lymphoblasts [1]) of 9100 nM, an IC50 (CD45 [2]; [5]) of 800 nM and an IC50 (T cells (PBMC)) of 800 nM. It also gave an IC50 (CD45 [3]; [6]) of 5200 nM.

For `O=C1C(=O)c2ccc(NC(=O)C(Cl)(Cl)Cl)cc2-c2ccccc21` [Example 11, 2,2,2-Trichloro-N(9,10-dioxo-9,10-dihydro-phenanthren-3-yl)-acetamide], the CC50 (T-cell lymphoblasts [1]) was greater than 30000 nM, the IC50 (CD45 [2]; [5]) was 2800 nM and the IC50 (T cells (PBMC)) was 6500 nM. It also gave an IC50 (CD45 [3]; [6]) of 11600 nM.

With `O=C1C(=O)c2c(-c3ccc4ccccc4c3)cccc2-c2ccccc21` [Example 19, 1 -Naphthalen-2-yl-phenanthrene-9,10-dione] the IC50 (CD45 [2]; [5]) was 4490 nM, the CC50 (T-cell lymphoblasts [4]) was 4400 nM and the IC50 (T cells (PBMC)) was 1600 nM. The IC50 (CD45 [3]; [6]) was greater than 30000 nM.

For `N=C(N)NCCC[C@H](NC(=O)[C@@H]1CCCN1C(=O)[C@H](CCCNC(=N)N)NC(=O)CNC(=O)c1ccc2c(c1)C(=O)C(=O)c1ccccc1-2)C(=O)NCC(=O)O` [Example 55] (Phenanthrenequinone2carbonyl-GRPRG-OH), the IC50 (CD45 [2]; pH 7) was 1400 nM, the IC50 (CD45 [3]) was 4700 nM and the CC50 (in vitro) was greater than 30000 nM.

In the case of `N=C(N)NCCC[C@H](NC(=O)[C@@H]1CCCN1C(=O)[C@H](CCCNC(=N)N)NC(=O)[C@H](CCC(=O)O)NC(=O)c1ccc2c(c1)C(=O)C(=O)c1ccccc1-2)C(=O)NCC(=O)O` [Example 56] (Phenanthrenequinone2carbonyl-ERPRG-OH), the IC50 (CD45 [2]; pH 7) is reported as 800 nM, the IC50 (CD45 [3]) is reported as 2300 nM and the CC50 (in vitro) is reported as greater than 30000 nM.

Work on `N=C(N)NCCC[C@H](NC(=O)c1ccc2c(c1)C(=O)C(=O)c1ccccc1-2)C(=O)N[C@@H](CCCNC(=N)N)C(=O)N1CCC[C@H]1C(=O)N[C@@H](CCCNC(=N)N)C(=O)NCC(=O)O` [Example 57] (Phenanthrenequinone2carbonyl-RRPRG-OH) yielded an IC50 (CD45 [2]; pH 7) of 1300 nM, an IC50 (CD45 [3]) of 3200 nM and a CC50 (in vitro) greater than 30000 nM.

With `COC(=O)CCCCCCCCC(=O)Nc1ccc2c(c1)-c1ccccc1C(=O)C2=O` [Example 79, 9-(9,10-Dioxo-9,10-dihydro-phenanthren-3-ylcarbamoyl)-nionanoic Acid Methyl Ester] the CC50 (T-cell lymphoblasts [1]) was greater than 30000 nM, the IC50 (CD45 [2]; [5]) was 1600 nM and the IC50 (T cells (PBMC)) was 500 nM. It also gave an IC50 (CD45 [3]; [6]) greater than 30000 nM.

`O=C1C(=O)c2ccccc2-c2ccccc21` [Example 106, 9,10-Phenanthrenedione] gave an IC50 (CD45 [2]; pH 7) of 700 nM, an IC50 (T cells (PBMC)) of 300 nM and an IC50 (CD45 [3]; pH 7.2, read-out: Ick IC50) of 3100 nM. For the same compound, the CC50 (in vitro) was 1300 nM.
